ChEMBL document CHEMBL5380812, “Structural Dynamics-Driven Discovery of Anticancer and Antimetastatic Effects of Diltiazem and Glibenclamide Targeting Urokinase Receptor” (J Med Chem, 2023)
Activity calls are given as the source filed them. The rule behind the calls is not given here.

Legend:
[1] = system: Urokinase plasminogen activator surface receptor (Homo sapiens), Q03405 [UNDEFINED MUTATION]; details: dose 100.0 µM
Description: Binding affinity to uPAR H47C/N259C (unknown origin) mutant assessed as response unit at 100 uM by surface plasmon resonance (SPR) analysis relative to control

HUVEC = assay: Antiangiogenic activity against HUVEC cells assessed as inhibition of formation of capillary-like polygons/fork-like branches in serum free medium at 100 uM; format: functional, cell-based; details: Homo sapiens
CT26 [2] = assay: In vivo antitumor activity against mouse CT26 cells subcutaneously homografted in Balb/c mouse model assessed as suppression of tumor growth at 100 mg/kg, po every two days for 14 days; format: functional, organism-based; details: time 14.0 day
PC-3 [3] = assay: Inhibition of cell migration in human PC-3 cells assessed as wound healing measured upto 100 uM; format: cell-based
PC-3 [4] = assay: Antiinvasive activity against human PC-3 cells expressing high uPAR assessed as inhibition of invasive property incubated for 24 hrs by Crystal violet staining based - Transwell assay; format: functional, cell-based; details: dose 0-100 µM
MCF7 [5] = assay: Antiinvasive activity against empty vector transfected human MCF7 cells assessed as suppression of invasive property at upto 100 uM incubated for 24 hrs by Crystal violet staining based - Transwell assay; format: functional, cell-based
CT26 [6] = assay: In vivo antitumor activity against mouse CT26 cells subcutaneously homografted in Balb/c mouse model assessed as tumor weight at 100 mg/kg, po every two days for 14 days relative to control; format: functional; details: CT26, 336 h, time 14 day
[7] = Toxicity in Balb/c mouse homografted with mouse CT26 cells assessed as body weight at 100 mg/kg, po every two days for 14 days; format: organism-based; details: in vivo, 336 h, time 14 day
PC-3 [8] = assay: Antiinvasive activity against human PC-3 cells expressing high uPAR assessed as inhibition of invasive property without matrigel at upto 100 uM incubated for 24 hrs by crystal violet staining based - Transwell assay; format: functional, cell-based
CT26 [9] = assay: In vivo antimetastatic activity against mouse CT26-muPAR-mCherry cells intravenously homografted in Balb/c mouse lung metastatic model assessed as suppression of mCherry fluorescence in lung at 100 mg/kg, po every two days for 15 days relative to control; format: functional; details: time 15 day
MDA-MB-231 = assay: Antiinvasive activity against human MDA-MB-231 cells expressing moderate uPAR assessed as inhibition of invasive property at upto 100 uM incubated for 24 hrs by Crystal violet staining based - Transwell assay; format: functional, cell-based
[10] = molecular target: Urokinase plasminogen activator surface receptor (Homo sapiens, UniProt Q03405, H47C/N259C); assay: Binding affinity to uPAR H47C/N259C (unknown origin) mutant assessed as equilibrium dissociation constant by surface plasmon resonance (SPR) analysis relative to control
PC-3 [11] = assay: Cytotoxicity against human PC-3 cells assessed as survival rate without matrigel at upto 100 uM; format: toxicity, cell-based; details: pc-3, 100 µM
CT26 [12] = assay: In vivo antimetastatic activity against mouse CT-26-muPAR-mCherry cells intravenously homografted in Balb/c mouse lung metastatic model assessed as suppression of hyperplastic nodules on the pleural surface in lung at 30 to 100 mg/kg, po every two days for 15 days; format: functional, organism-based; details: dose 30-100 mg/kg, time 15.0 day
CT26 [13] = assay: In vivo antimetastatic activity against mouse CT-26-muPAR-mCherry cells intravenously homografted in Balb/c mouse lung metastatic model assessed as suppression of hyperplasia-induced lung weight increase at 30 to 100 mg/kg, po every two days for 15 days; format: functional, organism-based; details: dose 30-100 mg/kg, time 15.0 day
[14] = Toxicity in Balb/c mouse homografted with mouse CT-26-muPAR-mCherry cells assessed as vascular hyperemia at 100 mg/kg, po every two days for 15 days; format: organism-based; details: in vivo, 360 h, time 15 day
CT26 [15] = assay: Antiinvasive activity against mouse CT26-muPAR-mCherry cells assessed as suppression of invasive property incubated for 24 hrs by Crystal violet staining based - Transwell assay; format: functional, cell-based; details: dose 0-100 µM
[16] = Inhibition of human recombinant […]/uPAR (unknown origin) interaction measured after 2 hrs by ELISA
HEK-293T = assay: Antimetastatic activity against uPAR-overexpressing HEK293T cells assessed as suppression of invasive property incubated for 24 hrs by Crystal violet staining based - Transwell assay; format: functional, cell-based; details: Homo sapiens, dose 0-100 µM
Caco-2 = assay: Antiinvasive activity against uPAR-negative human Caco-2 cells assessed as inhibition of invasive property at upto 100 uM incubated for 24 hrs by Crystal violet staining based - Transwell assay; format: functional, cell-based
[17] = Toxicity in Balb/c mouse homografted with mouse CT-26-muPAR-mCherry cells assessed as adverse effect at 100 mg/kg, po every two days for 15 days; format: organism-based; details: in vivo, 360 h, time 15 day
MCF7 [18] = assay: Antiinvasive activity against short hairpin RNA sequence of uPA containing vector transfected human MCF7-shuPA cells assessed as suppression of invasive property at upto 100 uM incubated for 24 hrs by Crystal violet staining based - Transwell assay; format: functional, cell-based
CT26 [19] = assay: In vivo antimetastatic activity against mouse CT-26-muPAR-mCherry cells intravenously homografted in Balb/c mouse lung metastatic model assessed as suppression of metastases of cancer cells around vessels at 100 mg/kg, po every two days for 15 days by histopathological analysis; format: functional, organism-based; details: time 15.0 day
CT26 [20] = assay: Antiinvasive activity against mouse CT26 cells assessed as suppression of invasive property incubated for 24 hrs by Crystal violet staining based - Transwell assay; format: functional, cell-based; details: dose 0-100 µM
CT26 [21] = assay: In vivo antimetastatic activity against mouse CT26-muPAR-mCherry cells intravenously homografted in Balb/c mouse lung metastatic model assessed as suppression of mCherry fluorescence in lung at 30 mg/kg, po every two days for 15 days relative to control; format: functional; details: time 15 day
CT26 [22] = assay: In vivo antitumor activity against CT26 cells subcutaneously homografted in Balb/c mouse model assessed as tumor weight at 300 mg/kg, po every two days for 14 days relative to control; format: functional; details: CT26, 336 h, time 14 day
CT26 [23] = assay: In vivo antimetastatic activity against mouse CT-26-muPAR-mCherry cells intravenously homografted in Balb/c mouse lung metastatic model assessed as suppression of metastases of cancer cells around vessels at 300 mg/kg, po every two days for 15 days by histopathological analysis; format: functional, organism-based; details: time 15.0 day
CT26 [24] = assay: In vivo antitumor activity against mouse CT26 cells subcutaneously homografted in Balb/c mouse model assessed as suppression of tumor growth at 300 mg/kg, po every two days for 14 days; format: functional, organism-based; details: time 14.0 day
[25] = Toxicity in Balb/c mouse homografted with mouse CT-26-muPAR-mCherry cells assessed as adverse effect at 300 mg/kg, po every two days for 15 days; format: organism-based; details: in vivo, 360 h, time 15 day
[26] = Toxicity in Balb/c mouse homografted with mouse CT26 cells assessed as body weight at 300 mg/kg, po every two days for 14 days; format: organism-based; details: in vivo, 336 h, time 14 day
CT26 [27] = assay: In vivo antimetastatic activity against mouse CT-26-muPAR-mCherry cells intravenously homografted in Balb/c mouse lung metastatic model assessed as suppression of hyperplasia-induced lung weight increase at 30 to 100 to 300 mg/kg, po every two days for 15 days; format: functional, organism-based; details: dose 100-300 mg/kg, time 15.0 day
CT26 [28] = assay: In vivo antimetastatic activity against mouse CT26-muPAR-mCherry cells intravenously homografted in Balb/c mouse lung metastatic model assessed as suppression of mCherry fluorescence in lung at 300 mg/kg, po every two days for 15 days relative to control; format: functional; details: time 15 day
CT26 [29] = assay: In vivo antimetastatic activity against mouse CT-26-muPAR-mCherry cells intravenously homografted in Balb/c mouse lung metastatic model assessed as suppression of hyperplastic nodules on the pleural surface in lung at 100 to 300 mg/kg, po every two days for 15 days; format: functional, organism-based; details: dose 100-300 mg/kg, time 15.0 day

Chain of Urokinase plasminogen activator surface receptor (Homo sapiens), Q03405 [UNDEFINED MUTATION] (Q03405 whole entry, looked up, stated change not applied): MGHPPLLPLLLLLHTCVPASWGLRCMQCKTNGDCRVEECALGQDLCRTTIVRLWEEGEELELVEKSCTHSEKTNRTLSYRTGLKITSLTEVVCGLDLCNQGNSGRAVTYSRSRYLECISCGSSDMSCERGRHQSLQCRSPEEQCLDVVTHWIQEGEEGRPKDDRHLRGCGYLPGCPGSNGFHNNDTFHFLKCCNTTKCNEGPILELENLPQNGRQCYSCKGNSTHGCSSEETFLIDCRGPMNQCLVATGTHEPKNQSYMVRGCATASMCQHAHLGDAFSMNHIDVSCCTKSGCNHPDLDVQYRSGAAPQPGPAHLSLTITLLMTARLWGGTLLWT
Chain of Urokinase plasminogen activator surface receptor (Q03405 23-305 H69C/N281C limits assumed): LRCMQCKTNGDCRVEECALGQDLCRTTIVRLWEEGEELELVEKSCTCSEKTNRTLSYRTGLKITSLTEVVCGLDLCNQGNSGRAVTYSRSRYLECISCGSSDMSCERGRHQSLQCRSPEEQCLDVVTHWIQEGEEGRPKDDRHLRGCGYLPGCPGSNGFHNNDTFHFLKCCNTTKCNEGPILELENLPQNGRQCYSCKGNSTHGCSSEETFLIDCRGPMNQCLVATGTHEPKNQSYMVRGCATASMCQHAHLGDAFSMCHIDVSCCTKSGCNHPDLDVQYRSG

In the case of `CC(=O)OCC(CCn1cnc2cnc(N)nc21)COC(C)=O`, the RU [1] is reported as -4.

Work on `CC(C)(C)c1ccc(C(=O)CCCN2CCC(OC(c3ccccc3)c3ccccc3)CC2)cc1` yielded an RU [1] of 1.5.

`CC(C)=CCOc1c2occc2cc2ccc(=O)oc12` gave an RU [1] of 1.

In the case of `CC(CCc1ccc(O)cc1)NCCc1ccc(O)c(O)c1` (centres undefined), the RU [1] is reported as 5.5.

`CCCCC1C(=O)N(c2ccccc2)N(c2ccccc2)C1=O` gave an RU [1] of 2.7.

Work on `CCCCCOC(=O)Nc1nc(=O)n([C@@H]2O[C@@H](O)[C@@H](O)[C@H]2O)cc1F` yielded an RU [1] of 1.

`CCN(CC)CCCC(C)Nc1c2ccc(Cl)cc2nc2ccc(OC)cc12` (centres undefined) showed an RU [1] of 20.

With `CCN(CC)CCOC(=O)c1ccc(N)cc1` the RU [1] was 17.

In the case of `CCN[C@H]1CN(CCCOC)S(=O)(=O)c2sc(S(N)(=O)=O)cc21`, the RU [1] is reported as -1.

Work on `CCOC(=O)Nc1ccc(NCc2ccc(F)cc2)nc1N` yielded an RU [1] of 15.

Compound `CCc1c(C)[nH]c2c1C(=O)C(CN1CCOCC1)CC2` (centres undefined) has an RU [1] of 8.

Compound `CCc1c(C)[nH]c2c1C(=O)CC(CN1CCOCC1)C2` (centres undefined) has an RU [1] of 11.

For `CN(C)CCC=C1c2ccccc2CCc2ccccc21`, the RU [1] was 11.

`CN(C)CCCC1(c2ccc(F)cc2)OCc2cc(C#N)ccc21` (centres undefined) gave an RU [1] of 7.

`CN/C(=N\CCSCc1nc[nH]c1C)NC#N` showed an RU [1] of -3.

In the case of `CNC(=C[N+](=O)[O-])NCCSCc1ccc(CN(C)C)o1`, the RU [1] is reported as 0.

`CNCC(O)c1ccc(O)cc1` (centres undefined) showed an RU [1] of 0.5.

In the case of `COC(=O)[C@@H](N)CCCNC(=N)N[N+](=O)[O-]`, the RU [1] is reported as 0.

For `COc1ccc(CN(CCN(C)C)c2ccccc2)cc1`, the RU [1] was 1.7.

`Cc1ccc(S(=O)(=O)N[C@@H](CCCCN)C(=O)CCl)cc1` gave an RU [1] of 0.

In the case of `NC(CO)C(=O)NNCc1ccc(O)c(O)c1O` (centres undefined), the RU [1] is reported as 0.

With `O=C(/C=C/c1ccc(O)c(O)c1)OCCc1ccccc1` the RU [1] was 8.

Work on `O=C(O)c1cccnc1Nc1cccc(C(F)(F)F)c1` yielded an RU [1] of 7.

`O=C1CC2(CCCC2)CC(=O)N1CCCCN1CCN(c2ncccn2)CC1` gave an RU [1] of 1.

In the case of `COc1ccc([C@@H]2Sc3ccccc3N(CCN(C)C)C(=O)[C@@H]2OC(C)=O)cc1` [DILTIAZEM], the Activity (HUVEC) is reported as “Active”, the Activity (CT26 [2]) is reported as “Active” and the Activity (PC-3 [3]) is reported as “Active”. The Activity (PC-3 [4]) was “Dose-Dependent Effect”, the Activity (MCF7 [5]) was “Active” and the inhibition in vivo at 100 mg/kg (CT26 [6]) was 73.2%. For the same compound, the Activity [7] was “Non-Toxic”, the Activity (PC-3 [8]) was “Active” and the Activity (CT26 [9]) was 76%. For the same compound, the Activity (MDA-MB-231) was “Active”, the Kd [10] was 39.2 µM and the Activity (PC-3 [11]) was “Non-Toxic”. For the same compound, the Activity (CT26 [12]) was “Active”, the Activity (CT26 [13]) was “Active” and the RU [1] was 12. The Activity [14] was “Toxic”, the Activity (CT26 [15]) was “Dose-Dependent Effect” and the IC50 [16] was 58.6 µM. For the same compound, the Activity (HEK-293T) was “Dose-Dependent Effect”, the Activity (Caco-2) was “inactive” and the Activity [17] was “Non-Toxic”. For the same compound, the Activity (MCF7 [18]) was “Active”, the Activity (CT26 [19]) was “Active” and the Activity (CT26 [20]) was “Dose-Dependent Effect”. The Activity (CT26 [21]) was 61%.

With `COc1ccc(Cl)cc1C(=O)NCCc1ccc(S(=O)(=O)NC(=O)NC2CCCCC2)cc1` [GLYBURIDE] the Activity (HUVEC) was “Active”, the Activity (PC-3 [3]) was “Active” and the Activity (PC-3 [4]) was “Dose-Dependent Effect”. The Activity (MCF7 [5]) was “Active”, the inhibition in vivo at 300 mg/kg (CT26 [22]) was 62.8% and the Activity (CT26 [23]) was “Active”. The Activity (PC-3 [8]) was “Active”, the Activity (CT26 [9]) was 70% and the Activity (MDA-MB-231) was “Active”. For the same compound, the Kd [10] was 40.4 µM, the Activity (CT26 [24]) was “Active” and the Activity [25] was “Non-Toxic”. For the same compound, the Activity (PC-3 [11]) was “Non-Toxic”, the RU [1] was 33 and the Activity (CT26 [15]) was “Dose-Dependent Effect”. The IC50 [16] was 69.5 µM, the Activity [26] was “Non-Toxic” and the Activity (HEK-293T) was “Dose-Dependent Effect”. For the same compound, the Activity (Caco-2) was “inactive”, the Activity (CT26 [27]) was “Active” and the Activity (MCF7 [18]) was “Active”. The Activity (CT26 [28]) was 83%, the Activity (CT26 [20]) was “Dose-Dependent Effect” and the Activity (CT26 [29]) was “Active”.

`O=C(CCCN1CCC(O)(c2ccc(Cl)cc2)CC1)c1ccc(F)cc1` [HALOPERIDOL] gave a Kd [10] of 41.2 µM and an RU [1] of 10.

`CNCCCC12CCC(c3ccccc31)c1ccccc12` [MAPROTILINE] gave a Kd [10] of 79.7 µM and an RU [1] of 13.

With `O=C(O)CCc1nc(-c2ccccc2)c(-c2ccccc2)o1` [OXAPROZIN] the Kd [10] was 114 µM and the RU [1] was 20.
